According to patent publication US12262713B2, “Method of controlling weeds” (SUMITOMO CHEMICAL COMPANY, LIMITED, priority 2018, dated 2025):
Counter-ions that a name gives are not always drawn.

How the values were obtained:
Type in all cases: in vivo
[1] = test system: glyphosate-sensitive Amaranthus palmeri; assay: Foliar spray pot test in greenhouse, herbicidal effect (Example 29); details: foliar spray 200 L/ha at 18 days, rated 14 days after treatment, rating 0 to 100
Description: (§1) In a plastic pot filled with soli were seeded glyphosate-resistant Amaranthus palmeri in which the number of copies of EPSPS gene had been increased (produced by Azlin Seed Service) and glyphosate-sensitive Amaranthus palmeri (produced by Azlin Seed Service). The weeds were cultivated in a greenhouse for 18 days, and then an aqueous spray liquid [i.e., a liquid prepared by diluting a predetermined amount of a trifludimoxazin formulation (i.e., an emulsifiable concentrate prepared by mixing 20 parts of trifludimoxazin with 80 parts of a liquid cocktail (i.e., a mixture of 5 parts of cyclohexanone and 1 part of SORPOL 2680X (manufactured by TOHO Chemical Industry Co., Ltd.))) with water containing a spreading agent] was sprayed uniformly from above the weeds at the amount of 200 L/ha using a sprayer. Subsequently, the weeds were allowed to grow in a greenhouse for 14 days, and then the herbicidal effect was examined. As a reference example, the same procedure was carried out, except that the trifludimoxazin formulation was replaced with a predetermined amount of a glyphosate formulation (i.e., a soluble liquid containing 660 g/L of glyphosate potassium salt: “ROUNDUP MAXLOAD” (manufactured by Nissan Chemical Corporation). The results are shown in the table 1.

[2] = test system: glyphosate-resistant Amaranthus palmeri in which the number of copies of EPSPS gene had been increased; assay: as above; details: foliar spray 200 L/ha at 18 days, rated 14 days after treatment, rating 0 to 100
Description: as §1

[3] = test system: glyphosate-resistant weeds (Amaranthus palmeri, waterhemp, kochia, marestail, Guernsey fleabane, fleabane, goosegrass, darnel, volunteer glyphosate-tolerant …); assay: Foliar treatment pot test 21 days after seeding (Example 2); details: foliage application at 6.25, 12.5, 25, 50, 100 or 150 g/ha; 200 L/ha; fourteen days after the treatment
Description: (§2) In a plastic pot filled with soil are seeded glyphosate-resistant Amaranthus palmeri in which the number of copies of EPSPS gene has been increased, glyphosate-resistant waterhemp in which the number of copies of EPSPS gene has been increased, glyphosate-resistant kochia in which the number of copies of EPSPS gene has been increased, marestail which is resistant to glyphosate by involving an ABC transporter, Guernsey fleabane which is resistant to glyphosate by involving an ABC transporter, fleabane which is resistant to glyphosate by involving an ABC transporter, glyphosate-resistant goosegrass having Thr102Ile, glyphosate-resistant goosegrass having Pro106Ser, glyphosate-resistant goosegrass having Pro106Ala, glyphosate-resistant goosegrass having Pro106Leu, glyphosate-resistant goosegrass having Thr102Ile and Pro106Ser, glyphosate-resistant darnel having Thr102Ile, glyphosate-resistant darnel having Pro106Ser, glyphosate-resistant darnel having Pro106Ala, glyphosate-resistant darnel having Pro106Leu, volunteer glyphosate-tolerant soybean, and volunteer glyphosate-tolerant cotton. The plants are cultivated in a greenhouse for 21 days, and then trifludimoxazin is applied to foliage of the plants at application rate of 6.25, 12.5, 25, 50, 100 or 150 g/ha. The amount of a liquid sprayed is 200 L/ha. Subsequently, the plants are cultivated in a greenhouse.

[4] = test system: glyphosate-resistant weeds (Amaranthus palmeri, waterhemp, kochia, marestail, Guernsey fleabane, fleabane, goosegrass, darnel, volunteer glyphosate-tolerant …); assay: Soil treatment pot test on day of seeding (Example 1); details: soil treatment at 6.25, 12.5, 25, 50, 100 or 150 g/ha; 200 L/ha; twenty-eight days after the treatment
Description: as §2, with “On the same day, the soil is treated with” for “The plants are cultivated in a greenhouse for 21 days, and then”, “at” for “is applied to foliage of”, “the” for “the plants at”

Row | Structure (SMILES) | Effect on glyphosate-sensitive Amaranthus palmeri ([1]; application rate 385 g/ha) | Effect on glyphosate-sensitive Amaranthus palmeri ([1]; application rate 1540 g/ha) | Effect on glyphosate-resistant Amaranthus palmeri ([2]; application rate 1540 g/ha) | Effect on glyphosate-resistant Amaranthus palmeri ([2]; application rate 6160 g/ha) | effect against the weeds [3] | effect against the weeds [4] | Effect on glyphosate-sensitive Amaranthus palmeri ([1]; application rate 6.25 g/ha) | Effect on glyphosate-sensitive Amaranthus palmeri ([1]; application rate 12.5 g/ha) | Effect on glyphosate-sensitive Amaranthus palmeri ([1]; application rate 25 g/ha) | Effect on glyphosate-resistant Amaranthus palmeri ([2]; application rate 6.25 g/ha) | Effect on glyphosate-resistant Amaranthus palmeri ([2]; application rate 12.5 g/ha) | Effect on glyphosate-resistant Amaranthus palmeri ([2]; application rate 25 g/ha)
1 | O=C(O)CNCP(=O)(O)O [Glyphosate potassium salt, glyphosate potassium salt] | 100 | 100 | 20 | 70 | – | – | – | – | – | – | – | –
2 | C#CCN1C(=O)C(F)(F)Oc2cc(F)c(-n3c(=O)n(C)c(=S)n(C)c3=O)cc21 [Trifludimoxazin, trifludimoxazin] | – | – | – | – | significant effect | significant effect | 65 | 70 | 80 | 100 | 100 | 100
